Earlier results as cited in patent US20260248756A1, “FAT COMPOSITION COMPRISING TRIBUTYRIN AND TRICAPROIN AND ITS USE IN MILK REPLACERS” (Nutreco IP Assets B.V., priority 2023, published 2026).

For `CCCC(=O)OCC(COC(=O)CCC)OC(=O)CCC` [tributyrin], the “total intake of solid feed” value (postweaning, tributyrin up to 0.6 wt % of dry matter in CMR) is given as “increased total intake of solid feed” and the “body weight compared with calves not fed tributyrin” value (weaning and postweaning period, 0.6 wt % of dry matter tributyrin in milk replacer) is given as “greater body weight”.
